Experimental data: US20130101624A1, “LINEAR IGE PEPTIDE EPITOPES OF HAZELNUT ALLERGEN COR A 1 AND CELERY ANTIGEN API 1” (CHARITE UNIVERSITATSMEDIZIN BERLIN, priority 2010, published 2013)

Legend:
[1] = tested on: human IgE antibodies (sera of celery allergic patients and healthy subjects); assay: Human IgE antibody binding to Api g 1.0101 derived 12-meric peptides arrayed on cellulose membrane (SPOT pepscan), probed with sera; conditions: for number of celery allergic patients whose sera IgE antibodies bind the sequence: of 21 celery allergic patients; for IgE binding in sera of healthy controls: sera of 17 healthy subjects; for IgE binding in sera of healthy controls / recognition by sera of celery allergic patients / share of celery allergic individuals whose serum IgE responded to the peptide: diluted 1:5; for recognition by sera of celery allergic patients / share of celery allergic individuals whose serum IgE responded to the peptide: sera of 21 celery allergic patients; for share of celery allergic individuals whose serum IgE responded to the peptide: spot positive if SInorm above membrane cut off
Source text: (§1) Subsequently, these sequences were synthesized as peptide arrays on cellulose membranes according to SPOT technology. A highly specific secondary anti-human IgE antibody with minimum cross-reactivity towards cellulose membrane-bound peptides was employed.
Synthetic arrays were probed with sera randomly chosen from a well described cohort of subjects, including 21 patients with a defined allergic reaction to celery, 13 patients with a defined allergic reaction to hazelnut and 17 healthy individuals. Captured human IgE antibodies were detected by a HRP-labeled secondary antibody and binding was visualized by chemiluminescence.
The optimal conditions for screening the sera of 21 celery allergic patients and 17 healthy controls were as follows: (i) replica of a 12-meric pepscan with a shift of three amino acids covering the Api g 1.0101 sequence (or cor a 1 sequence, respectively) synthesized on high-loaded N-CAPE membranes (640 nmol/cm2-760 nmol/cm2); (ii) prior to treatment with sera, membranes were blocked with the Sigma-Genosys blocking buffer for 2 h at room temperature; (iii) arrays were probed for 16 h at 4° C. with diluted sera (1:5) for IgE antibody binding; (iv) the captured human IgE antibodies were detected with the HRP-labeled anti-human IgE antibody (A 9667, Sigma-Aldrich) and visualized by chemiluminescence; (v) spot signal intensities were measured on a Lumilmager and processed with the LumiAnalyst software. To check the reproducibility of our screening procedure, three different peptide arrays were incubated and evaluated for each person (allergic and healthy).
Sera binding patterns could be reproduced in repeated incubation experiments. Although inter-membrane absolute spot signal intensities differed, the relative differences between spot signal intensities were nearly the same. This enabled comparison of spot signal intensities from different membranes by applying an additional normalization procedure. We defined an IgE antibody binding spot as positive if its normalized signal intensity (SInorm) was higher than the calculated cut off value of the appropriate membrane.
Peptide array synthesis: Overlapping peptide sequences (7-, 12- and 24-mer) with a shift of three amino acids) of Api g 1.0101 or cor a 1 were prepared by a MultiPep SPOT-robot (INTAVIS Bioanalytical Instruments AG, Köln, Germany). Array design was performed with the aid of the in-house software LISA 1.83. Amino acids were used as Fmoc-protected Opfp-esters with the following side protection groups: tert-butyl ester (OtBu) for E and D, tert-butyl ether (tBu) for S, T and Y, tert-butoxycarbonyl (Boc) for K and W, triphenylmethyl (Trt) for C, N, Q and H and 2,2,4,6,7-pentamethyldihydrobenzofuran-5-sulfonyl (Pbf) for R. For standard SPOT-synthesis, double couplings of 0.3 M solutions of amino acids in 1-methyl-2-pyrollidone (NMP; Fluka, Steinheim, Germany) were applied. After the final Fmoc-deprotection step and washing procedure, cleavage of the side chain protecting groups was performed according to our standard two-step deprotection protocol.
Human IgE antibody binding studies: The spotted peptide arrays were prewashed with ethanol (1×10 min), washed with Tris-buffered saline (TBS), pH 8.0 (3×10 min), and blocked for 2 h at room temperature with blocking buffer. The membranes were incubated with the patients' sera (dilution 1:5) in blocking buffer overnight at 4° C., washed with TBS, followed by a second incubation with anti-human IgE antibody (ε-chain specific) conjugated with horse radish peroxidase (HRP) (A 9667, Sigma-Aldrich, St. Louis, USA) in blocking buffer for 2 h at room temperature. To remove excess antibody the membrane was washed with TBS (3×10 min). Detection was performed with Uptilight HRP blot chemiluminescent substrate (Uptima, Interchim, Montiugon Cedex, France) with an exposure time of 2 min. […]

[2] = tested on: human IgE antibodies (sera of hazelnut allergic patients); assay: Human IgE antibody binding to Cor a 1.0301 derived 12-meric peptide array (SPOT pepscan), probed with sera; conditions: sera of 13 hazelnut allergic patients
Source text: An array of overlapping peptides representing the entire sequence of major hazelnut allergen Cor a 1.0301 was synthesized and probed with the participants' sera. Sera of hazelnut allergic patients show binding to different distinct regions of Cor a 1. In particular, the region of dodecapeptides 17 to 22 is the most important region for IgE-binding.
as §1
Synthetic arrays were probed with sera randomly chosen from a well described cohort of subjects, including 21 patients with a defined allergic reaction to celery, 13 patients with a defined allergic reaction to hazelnut and 17 healthy individuals. Captured human IgE antibodies were detected by a HRP-labeled secondary antibody and binding was visualized by chemiluminescence. […]
Human IgE antibody binding studies: The spotted peptide arrays were prewashed with ethanol (1×10 min), washed with Tris-buffered saline (TBS), pH 8.0 (3×10 min), and blocked for 2 h at room temperature with blocking buffer. […] The signal intensities were recorded as Biomedical Light Units (BLU) by a Lumilmager™ (Boehringer Mannheim GmbH, Mannheim, Germany) using the LumiAnalyst software. […]

Sequence	number of celery allergic patients whose sera IgE antibodies bind the sequence [1]	IgE binding in sera of healthy controls [1]	share of celery allergic individuals whose serum IgE responded to the peptide [1] [%]	other results
VLVPTADGGSIC (listed as Apium graveolens) [peptide 35]	at least six	not reacting with any sera IgE antibody from healthy subjects	100	spot signal intensity (BLU), ranking ([1]; average spot signal intensity, chemiluminescence, FIG. 3): highest measured spot signal intensity; IgE binding in sera of healthy controls ([1]; listed as VLVPTADGGSIC): no binding; recognition by sera of celery allergic patients [1]: recognized by the sera from all the celery allergic patients; recognition by sera of celery allergic patients ([1]; listed as VLVPTADGGSIC): recognized by all sera of celery allergic patients
IFQGFVIDVDTV (listed as Apium graveolens) [peptide 7]	at least six	not reacting with any sera IgE antibody from healthy subjects	38	
PTADGGSICKTT (listed as Apium graveolens) [compound 36]			43	
GGPITTMTLRID (listed as Apium graveolens) [compound 21]			29	
PHGGSILKSISK (listed as Corylus avellana) [COR A 1. PEP37]				recognition by sera of hazelnut allergic patients [2]: recognized by all sera of hazelnut allergic patients
GDGGPGTLKIIT (listed as Apium graveolens) [compound 16]			38	
NHVVLVPTADGG [peptide 34]	at least six	not reacting with any sera IgE antibody from healthy subjects	29	
IITLPDGGPITT (listed as Apium graveolens) [compound 19]			29	
AGKEKASGLFKA (listed as Corylus avellana) [COR A 1. PEP47]				recognition by sera of hazelnut allergic patients [2]: recognized by all sera of hazelnut allergic patients
